According to patent publication US9604974B2, “Compounds as modulator of JAK-STAT pathway, methods and applications thereof” (UNIVERSITY OF MYSORE, priority 2015, dated 2017):

Each compound was assayed on HepG2 cells (assay: MTT anti-proliferative assay, HepG2). Details: Homo sapiens; HepG2 cells after 72 hours, MTT.
Type: cell-based
Procedure: The anti-proliferative activity of Formula I compounds are studied on HepG2 cells using MTT assay. Briefly, the cells (2.5×10^4/ml) are incubated in triplicate in a 96-well plate in the presence or absence of different concentrations of compounds in a final volume of 0.2 ml up to 72 hours at 37° C. Thereafter, 20 μl MTT solution (5 mg/ml in PBS) is added to each well. After 2 hours of incubation at 37° C., 0.1 ml lysis buffer (20% SDS, 50% dimethyl-formamide) is added; incubation is continued overnight at 37° C.; and the optical density (OD) at 570 nm is measured by Tecan plate reader.

`CCCCc1nc(Cl)c(C2NCC(c3ccc(OC)cc3)C3(CCCCC3)O2)[nH]1` (stereo not drawn) [Compound 2, 2-(2-butyl-5-chloro-3H-imidazol-4-yl)-5-(4-methoxy-phenyl)-1-oxa-3-aza spiro(5,5) undecane] and `COc1ccc(C2CNC(c3c(Cl)cccc3Cl)OC23CCCCC3)cc1` (stereo not drawn) [Compound 10, 2-(2,6-dichlorophenyl)-5-(4-methoxy-phenyl)-1-oxa-3-aza spiro(5,5) undecane] are within 1.5-fold of each other in IC50: 38.7 µM for the first, 42.4 µM for the second.

`CCCCc1nc(Cl)c(C2NCC(c3ccc(OC)cc3)C3(CCCCC3)O2)n1Cc1ccc(-c2ccccc2C#N)cc1` (stereo not drawn) [Compound 3, 2-(2-butyl-5-chloro-3-(4-(2-cyanophenyl)1-benzyl)-imidazol-4-yl)-5-(4-methoxy-phenyl)-1-oxa-3-aza spiro(5,5) undecane] and `CCCCc1nc(Cl)c(C2NCC(c3ccc(OC)cc3)C3(CCCCC3)O2)n1Cc1ccc(Oc2ccccc2)cc1` (stereo not drawn) [Compound 7] are within 1.5-fold of each other in IC50: 14.3 µM for the first, 15.8 µM for the second.

Compared with `COc1ccc(C2CNC(c3ccc(Br)cc3)OC23CCCCC3)cc1` (stereo not drawn) [Compound 4, 2-(4-Bromophenyl)-5-(4-methoxy-phenyl)-1-oxa-3-aza spiro(5,5) undecane], `COc1ccc(C2CNC(c3ccc(N(C)C)cc3)OC23CCCCC3)cc1` (stereo not drawn) [Compound 13, 2-(4-dimethylaminophenyl)-5-(4-methoxy-phenyl)-1-oxa-3-aza spiro(5,5) undecane] is higher in IC50: 37.1 µM for the first, greater than 50 µM for the second. The first is the more potent here.

Compared with `COc1ccc(C2CNC(c3c(-c4ccccc4)[nH]c4ccccc34)OC23CCCCC3)cc1` (stereo not drawn) [Compound 5, 2-(2-phenylindyl)-5-(4-methoxy-phenyl)-1-oxa-3-aza spiro(5,5) undecane], `COc1ccc(C2CNC(c3c(C)[nH]c4ccccc34)OC23CCCCC3)cc1` (stereo not drawn) [Compound 9, 2-(2-methylindyl)-5-(4-methoxy-phenyl)-1-oxa-3-aza spiro(5,5) undecane] is higher in IC50: 9.8 µM for the first, greater than 50 µM for the second. The first is the more potent here.

`COc1ccc(C2CNC(c3c[nH]c4ccccc34)OC23CCCCC3)cc1` (stereo not drawn) [Compound 6, 2-(indyl)-5-(4-methoxy-phenyl)-1-oxa-3-aza spiro(5,5) undecane] and `COc1ccc(C2CNC(c3coc4ccccc4c3=O)OC23CCCCC3)cc1` (stereo not drawn) [Compound 8, 3-[5-(4-Methoxy-phenyl)-1-oxa-3-aza-spiro[5.5]undec-2-yl]-chromen-4-one] are within 1.5-fold of each other in IC50: 28.5 µM for the first, 28.8 µM for the second.

`COc1ccc(C2CNC(c3ccc4c(c3)CCO4)OC23CCCCC3)cc1` (stereo not drawn) [Compound 11, 2-(2,3-Dihydro-benzofuran-5-yl)-5-(4-methoxy-phenyl)-1-oxa-3-aza-spiro[5.5]undecane] and `COc1ccc(C2CN(Cc3ccc(-c4ccccc4C#N)cc3)C(c3c(Cl)cccc3Cl)OC23CCCCC3)cc1` (stereo not drawn) [Compound 12] cannot be ordered by IC50: greater than 50 µM for the first, greater than 50 µM for the second.

Each compound was assayed on phospho-STAT3 (Y705) (assay: Western blot of constitutive phospho-STAT3 (Y705) in HepG2). Details: HepG2, 6 hours.
Type: cell-based, human
Procedure: FIG. 2 depicts the suppression of phospho-STAT3 by compound 1 (CIMO) in a dose dependent manner [A]. HepG2 cells (5×10^5/mL) are treated with the indicated concentrations of CIMO for 6 hours, after which whole-cell extracts are prepared and resolved on SDS-PAGE gel, electrotransferred onto nitrocellulose membrane, and probed for phospho-STAT3. The same blot is stripped and reprobed with STAT3 antibody to verify equal protein loading. […] HepG2 cells (5×10^5/mL) are treated with the indicated concentrations of AG490 for about 6 hours, after which Western Blotting is done as described for [A]. [C] depicts the suppression of phospho-STAT3 levels by Compound 1 (CIMO) in a time-dependent manner. HepG2 cells (5×10^5/mL) are treated with 10 μMol/L CIMO for the indicated times, after which Western blotting is done as described for [A]. [D] depicts that compound 1 (CIMO) has no effect on phospho-STAT3 (Ser-727) and STAT3 protein expression. HepG2 cells (5×10^5/mL) are treated with 10 μMol/L CIMO for the indicated times, after which Western Blotting is done as described for [A] and membrane is probed using antibodies against phospho-STAT3 (Ser-727) and STAT3. […] HepG2 cells (1×10^5/mL) are incubated with or without 10 μMol/L CIMO for about 6 hours and then analyzed for the intracellular distribution of STAT3 by immunocytochemistry. The same slides are counterstained for nuclei with Hoechst (50 ng/mL) for about 5 minutes and analyzed under an fluorescencemicroscope. […] HepG2 cells (5×10^5/mL) are treated with 10 μMol/L CIMO, after which whole-cell extracts are prepared, resolved in SDS-PAGE, electrotransferred onto nitrocellulose membrane, and probed with phospho-Src, phospho-JAK1 and phospho-JAK2 antibodies. The same blots are stripped and reprobed with Src, JAK1 and JAK2 antibodies to verify equal protein loading. [G] depicts the suppression of STAT3 DNA binding ability by Compound 1 (CIMO) in HepG2 cells. HepG2 cells are treated with 10 μMol/L CIMO for the indicated time, nuclear extracts are prepared, and 5 μg of the nuclear extract protein is used for ELISA-based DNA-binding assay.
CIMO is tested towards the inhibition of constitutive activation of STAT3 in HepG2 cells by Western Blotting via antibodies recognising phospho-STAT3 (Y705). For detection of phospho-proteins, CIMO treated whole-cell extracts are lysed in lysis buffer [20 mM Tris (pH 7.4), 250 mM NaCl, 2 mM Ethylenediaminetetraacetic acid (pH 8.0), 0.1% Triton-X-100, 0.01 mg/ml aprotinin, 0.005 mg/ml leupeptin, 0.4 mM phenylmethanesulfonylfluoride, and 4 mM NaVO4). Lysates are then spun at 14,000 rpm for about 10 minutes to remove insoluble material and resolved on SDS gel. After electrophoresis, the proteins are electrotransferred to a nitrocellulose membrane, blocked with 5% non-fat milk, and probed with various antibodies (1:1000) overnight at about 4° C. The blot is washed, exposed to HRP-conjugated secondary antibodies for about 1 hour, and finally examined by chemiluminescence (ECL; GE Healthcare, Little Chalfont, Buckinghamshire, UK).

`N#C/C(=C/c1ccc(O)c(O)c1)C(=O)NCc1ccccc1` [AG490, reference compound] was tested, and the “concentration of maximum inhibition of phospho-STAT3” value was 200 µM.

Same assay, conditions: HepG2, Western blot, dose and time course

For `N#C/C(=C/c1ccc(O)c(O)c1)C(=O)NCc1ccccc1` [AG490, reference compound], the “levels of phospho-STAT3 (Y705)” value was “decreases the phosphorylation of STAT3 in a dose-dependent manner”.

Same assay, conditions: HepG2, with 10 μMol/L CIMO, about 4 hours

In the case of sodium pervanadate [reference compound], the “effect on CIMO-induced inhibition of STAT3 activation” value is reported as “prevents CIMO-induced inhibition of STAT3 activation”.
